Tests used:
[1] = system: hepatitis B virus (HBV) ayw strain; assay: HBV experimental assay system, secreted HBV DNA by TaqMan PCR; format: cell-based; conditions: 10 micrograms per ml; HepG2-2.2.15, six days, HBV DNA in supernatant; combination 0.95 mole peptide 1 and 1.05 mole peptide 2
RAW 264.7 cells = assay: Phagocytosis assay (Fluorescein-labeled Escherichia coli, flow cytometry); format: cell-based, mouse; conditions: 10 micrograms per ml
A549 cells = assay: Apoptosis prevention assay (C2 ceramide, Annexin-5); format: cell-based, human; conditions: 10 micrograms per ml, 30 min pretreatment
TNF-a, spleen cells = assay: Th1/Th2 cytokine profiling assay, TNF-a; format: cell-based, Balb/c mice; conditions: 10 micrograms per ml; Ovalbumin-restimulated spleen cells, 72 hours
Excerpt: (§1) Th1/Th2 Cytokine Profiling Assay The Balb/c mice (originated in 1923, it is a popular strain and is used in many different research disciplines. […] On day 50, spleens of the mice were harvested (3 weeks after last boost with Ovalbumin). […] This kit can be used to measure Interleukin-2 (IL-2), Interleukin-4 (IL-4), Interleukin-5 (IL-5), Interferon-γ (IFN-γ), and Tumor Necrosis Factor-α (TNF-α) protein levels in a single sample. The kit performance has been optimized for analysis of physiologically relevant concentrations (pg/ml levels) of specific cytokine proteins in tissue culture supernatants and serum samples.

IFNγ, spleen cells = assay: Th1/Th2 cytokine profiling assay, IFNγ; format: cell-based, Balb/c mice; conditions: 10 micrograms per ml; Ovalbumin-restimulated spleen cells, 72 hours
Excerpt: as §1

IL-2, spleen cells = assay: Th1/Th2 cytokine profiling assay, IL-2; format: cell-based, Balb/c mice; conditions: 10 micrograms per ml; Ovalbumin-restimulated spleen cells, 72 hours
Excerpt: as §1

IL-4, spleen cells = assay: Th1/Th2 cytokine profiling assay, IL-4; format: cell-based, Balb/c mice; conditions: 10 micrograms per ml; Ovalbumin-restimulated spleen cells, 72 hours
Excerpt: as §1

IL-5, spleen cells = assay: Th1/Th2 cytokine profiling assay, IL-5; format: cell-based, Balb/c mice; conditions: 10 micrograms per ml; Ovalbumin-restimulated spleen cells, 72 hours
Excerpt: as §1

[2] = system: Primary Human endothelial cells (HUVEC); assay: Endothelial cell migration assay; format: cell-based; conditions: 10 micrograms per ml, 22 hours
HUVEC = assay: Endothelial tube formation assay; format: cell-based, human; conditions: 10 micrograms per ml, 20 hours, average tubule length, combination peptide 1:peptide 2 0.95 mole:1.05 mole
Method: The endothelial tube formation assay is based on the ability of endothelial cells to form three-dimensional capillary-like tubular structures when cultured on a gel of basement membrane extract. The endothelial tube formation assay represents a powerful model for studying inhibition and induction of angiogenesis. Pre-labeled HUVEC with Calcein AM were seeded in a 96-well culture plate coated with extracellular metrix (Chemicon international Cat. ECM625) and treated with test peptides—10 micrograms per ml—in full growth medium. Positive control was vehicle only. The endothelial cells were allowed to form tubes foe 20 hours and were then examined under an inverted fluorescent microscope. Duplicate wells for each treatment were photographed and quantitatively analyzed for an average tubule length using image analysis software ImageProPlus. Raw data were expressed as average tubule lenghs in pixels ±standard deviation. Statistic p values were computed using the Student's t-test.

HCMV strain AD169 = assay: HCMV plaque formation assay in MRC-5 cells; conditions: for inhibition of HCMV plaque formation as compared to the virus control experiment: 10 micrograms per ml, 7-10 days
HIV-1IIIB = assay: HIV-1 antiviral assay in CEM-SS cells (MTS readout); conditions: positive controls

| Compound | inhibition of HBV replication as compared to the virus control infection [1] [%] | TNF-a spleen cells; TH1 response (% of control) (TNF-a, spleen cells) | IFNγ spleen cells; TH1 response (% of control) (IFNγ, spleen cells) | IL-2 spleen cells (% of control) (IL-2, spleen cells) | IL-4 spleen cells; TH2 response (% of control) (IL-4, spleen cells) | IL-5 spleen cells; TH2 response (% of control) (IL-5, spleen cells) | inhibition of the tube formation of endothelial cells (HUVEC) [%] | inhibition of HCMV plaque formation as compared to the virus control experiment (HCMV strain AD169) | antiviral activity of positive control compounds (HIV-1IIIB) | other results |
| --- | --- | --- | --- | --- | --- | --- | --- | --- | --- | --- |
| Cys-Gly-Asn-Leu-Ser-Thr-Cys-Met-Leu-Gly-Thr-Tyr-Thr-Gln-Asp-Phe-Asn-Lys-Phe-His-Thr-Phe-Pro-Gln-Thr-Ala-Ile-Gly-Val-Gly-Ala-Pro-NH2 [peptide 2] | 31.0 | 116.4 % of control | 63.7 % of control | 110.1 % of control | 0.0 % of control | 60.2 % of control | 18 | did not inhibit HCMV plaque formation | – | inhibitory or activating effects on the phagocytic activity of murine macrophages (RAW 264.7 cells; RAW 264.7, combination peptide 1:peptide 2 1.10 mole:0.90 mole): no inhibitory or activating effects on the phagocytic activity; reduction of the ceramide-induced apoptosis on human lung cells (A549 cells; combination 0.95 mole peptide 1 and 1.05 mole peptide 2): 32.7%; inhibition of the migration of human endothelial cells [2]: 26% |
| Nc1nc(O)c2ncn(COC(CO)CO)c2n1 [Ganciclovir, reference compound] | – | – | – | – | – | – | – | – | – | antiviral activity of positive control compound (HCMV strain AD169; HCMV AD169, positive control): expected levels of antiviral activity |
| Cc1cn([C@H]2C[C@H](N=[N+]=[N-])[C@@H](CO)O2)c(=O)[nH]c1=O [AZT] | – | – | – | – | – | – | – | – | expected levels of antiviral activity | – |
| CC(C)(C)NC(=O)[C@@H]1CN(Cc2cccnc2)CCN1C[C@@H](O)C[C@@H](Cc1ccccc1)C(=O)N[C@H]1c2ccccc2C[C@H]1O [indinavir] | – | – | – | – | – | – | – | – | expected levels of antiviral activity | – |
| Ac-Ser-Pro-Tyr-Ser-Ser-Asp-Thr-Thr-Pro-Ala-Ala-Phe-Ala-Tyr-NH2 (Ac-SPYSSDTTPAAFAY-NH2) [peptide 1] | 40.7 | 107.4 % of control | 102.8 % of control | 116.2 % of control | 80.4 % of control | 70.7 % of control | 26 | did not inhibit HCMV plaque formation | – | increase of the phagocytic activity of murine macrophages (RAW 264.7 cells; RAW 264.7, Fluorescein-labeled E. coli): 42.9%; increase of the ceramide-induced apoptosis on human lung cells (A549 cells): 13.2%; induction of the migration of human endothelial cells [2]: 11% |

Reference: patent US20100204115A1, “USE OF ACETYL- (ALA10, 11)-RANTES (1-14) AND/OR CALCITONIN AS ANTI-ANGIOGENIC AGENTS” (priority 2007, published 2010)
